Laboratory results: ChEMBL document CHEMBL1154131, “Bioactive diterpenes and other constituents of Croton steenkampianus” (J Nat Prod, 2008)
In brackets after ≈: the same amount, converted by molar mass.

Columns and labels:
[1] = tested on: Vero; test: Cytotoxicity against african green monkey Vero cells by MTT assay; format: cell-based; conditions: Chlorocebus sabaeus
[2] = tested on: Plasmodium falciparum; test: Antiplasmodial activity against chloroquine-resistant Plasmodium falciparum Dd2; format: functional, organism-based
[3] = tested on: Plasmodium falciparum; test: Antiplasmodial activity against chloroquine-susceptible Plasmodium falciparum D10; format: functional, organism-based

IC50 [3] [µg/mL] | SMILES | IC50 [1] [µg/mL] | IC50 [2] [µg/mL]
 | CCN(CC)CCCC(C)Nc1ccnc2cc(Cl)ccc12 (stereo not given) [CHLOROQUINE] | 48.5 (≈ 152 µM) | 
 | O=c1c(O)c(-c2ccc(O)c(O)c2)oc2cc(O)cc(O)c12 [QUERCETIN] | 110 (≈ 364 µM) | 2.4 (≈ 7.94 µM)
1.1 (≈ 3.48 µM) | COc1ccc(-c2oc3cc(O)cc(O)c3c(=O)c2O)cc1O [TAMARIXETIN] | 170 (≈ 538 µM) | 
